Where two headings read alike, the source gives them in different places. Non-standard residues stand in square brackets, D forms with d. Residues, ends and D or L forms follow the SMILES beside them. Tyr(3-NO2) = N[C@@H](Cc1ccc(O)c([N+](=O)[O-])c1)C(=O)O; 2Abz = Nc1ccccc1C(=O)O
Assays:
[1] = Cytotoxic effects, tetrazolium salt (MTT) metabolic assay; type: cell-based; details: read-out: TC50 (the source's name)
Description: In conjunction with the appropriate starting materials and intermediates, the procedures of examples 1 to 11 can be used to prepare other compounds of formula 1. Examples of compounds thus prepared are listed in the following Tables I, II and III together with mass spectrum data for the compounds, and results from the assays A and B of example 12. Cytotoxic effects noted as TC50 in the following tables were determined according to the tetrazolium salt (MTT) metabolic assay, F. Denizot and F. Lang, J. Immun. Meth., 1986, 89, 271.

[2] = tested on: HCMV (strain AD169, ATCC VR-538); test: Plaque Reduction Assay (PRA); type: cell-based, human cytomegalovirus (HCMV); details: Hs-68 cells, approximately 50 PFU HCMV AD169, 8 days at 37°, read-out: EC50
Description: B. Plaque Reduction Assay (PRA)
Hs-68 cells (ATCC #CRL 1635) were seeded in 12-well plates at 83,000 cells/well in 1 mL of DMEM medium (Gibco Canada Inc.) supplemented with 10% fetal bovine serum (FBS, Gibco Canada Inc.). The plates were incubated for 3 days at 37° to allow the cells to reach 80-90% confluency prior to the assay.
The medium was removed from the cells by aspiration. The cells were then infected with approximately 50 PFU of HCMV (strain AD169, ATCC VR-538) in DMEM medium supplemented with 5% inactivated FBS (assay medium). (DMEM medium is commercially available and has been described by R. Dulbecco et al., Virology 1959, 8, 396.) The virus was allowed to adsorb to cells for 2 h at 37°. Following viral adsorption, the medium was removed from the wells by aspiration. The cells were then incubated with or without 1 mL of appropriate concentrations of test reagent in assay medium. Occasionally, test compounds were added 24 h post-infection. After 4 days of incubation at 37°, the medium was exchanged with fresh medium containing test compound and 4 days later the cells were fixed with 1% aqueous formaldehyde and stained with a 2% violet solution in 20% ethanol in water. Microscopic plaques were counted using a stereomicroscope. Drug effects were calculated as a percent reduction in the number of plaques in the presence of each drug concentration compared to the number observed in the absence of drug. Ganciclovir was used as a positive control in all experiments.

HCMV NO protease = HCMV NO protease (Human cytomegalovirus, UniProt P16753); test: HCMV NO Protease Assay (inhibition of cleavage of internally quenched fluorogenic peptide substrate); type: biochemical; details: for IC50: 100 nM HCMV NO protease, 5 μM substrate, 2.5 h at 30°, pH 8
Sequence of HCMV NO protease (P16753 1-256): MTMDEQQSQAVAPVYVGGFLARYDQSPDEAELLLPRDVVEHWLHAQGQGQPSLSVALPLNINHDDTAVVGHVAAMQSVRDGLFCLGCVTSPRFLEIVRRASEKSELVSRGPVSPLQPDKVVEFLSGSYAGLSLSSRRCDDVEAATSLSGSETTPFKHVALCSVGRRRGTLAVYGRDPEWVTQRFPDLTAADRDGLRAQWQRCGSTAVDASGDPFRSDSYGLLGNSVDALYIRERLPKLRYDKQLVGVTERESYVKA
Description: This particular assay determines the ability of a test compound to inhibit the activity of HCMV protease. More specifically, in the assay described herein, the inhibitory activity of the test compound is evaluated on the basis of its ability to interfere with the HCMV No protease cleavage of a fluorogenic peptide substrate which in turn is based on the maturation cleavage site of the enzyme.
A. HCMV NO Protease Assay
Material & Methods: Fluorescence measurements were recorded on a Perkin-Elmer LS-50B spectrofluorimeter equipped with a plate reader accessory. UV measurements were recorded on a Thermomax® microplate reader from Molecular Devices Corporation, Menlo Park, Calif., USA.
HCMV NO protease was assayed with an internally quenched fluorogenic substrate based on the maturation cleavage site (Abz-[…](3-NO2)R--OH, kcat /KM =260 M^-1 s^-1). The fluorescence increase upon cleavage of the Ala-Ser amide bond was monitored using excitation λ=312 nm (slit 2.5 nm) and emission λ=415 nm (slit 5 nm). A protocol adaptable to a 96-well plate format was designed for the determination of IC50 values of inhibitors. […] After this period, enzymatic hydrolysis of the fluorogenic substrate in the absence of inhibitor led to about a 30% conversion. Quenching was not required before fluorescence measurement since the total scanning time by the plate reader accessory was brief relative to the duration of the reaction. The aqueous incubation buffer contained 50 mM tris(hydroxymethyl)aminomethane.HCl pH 8, 0.5M Na2 SO4, 50 mM NaCl, 0.1 mM EDTA, 1 mM tris(2-carboxyethyl)phosphine.HCl, 3% v/v DMSO and 0.05% w/v casein. The final concentrations of HCMV NO protease (expressed in terms of total monomer concentration) and substrate were 100 nM and 5 μM respectively. IC50 values were obtained through fitting of the inhibition curve to a competitive inhibition model using SAS NLIN procedure. The mode of inhibition was determined by measurements of the initial rates (in cuvettes) at various substrate concentrations in the buffer as described above. The IC50 values listed in the following tables the IC50 were obtained according to this assay.

[3] = Human betaherpesvirus 5, AD169, Hs68, 192 h

| SMILES | CC50 [1] | EC50 [2] | IC50 (HCMV NO protease) | EC50 [2, 3] | kcat/KM (HCMV NO protease; fluorogenic substrate of HCMV NO protease) |
| --- | --- | --- | --- | --- | --- |
| CCC(NC(=O)N1C(=O)[C@@H](C)[C@@H]1Cc1ccccc1)c1ccncc1 (single isomer, unassigned) [Entry 205] | > 250 µM | > 250 µM | 21 µM |  |  |
| CCC(NC(=O)N1C(=O)[C@@H](C)[C@@H]1Cc1ccccc1)c1ccncc1 (single isomer, unassigned) [Entry 206] | > 250 µM | 96 µM | 3.2 µM |  |  |
| CN(Cc1ccc(C(F)(F)F)cc1)C(=O)N1C(=O)CC1Cc1nnn(C)n1 (stereo in doubt) [Entry 223, 4(R)-(2-methyl-2H-tetrazol-5-ylmethyl)-2-oxoazetidine-1-carboxylic acid N-methyl-N{{(4-trifluoromethyl)phenyl}methyl}amide] | > 195 µM |  | 5.7 µM | 94 µM |  |
| O=C1C[C@H](Cc2ccccc2)N1C(=O)Nc1ccc(F)cc1 [Entry 101] | > 250 µM |  | 3.7 µM | > 250 µM |  |
| COc1ccc(NC(=O)N2C(=O)C[C@@H]2Cc2ccccc2)cc1 [Entry 102] | > 250 µM |  | 3.9 µM | 215 µM |  |
| Cc1ccc(NC(=O)N2C(=O)C[C@@H]2Cc2ccccc2)cc1 [Entry 103] | > 250 µM |  | 5.3 µM | > 250 µM |  |
| O=C1C[C@H](Cc2ccccc2)N1C(=O)Nc1ccccc1 [Entry 104] | > 250 µM |  |  | > 250 µM |  |
| C[C@@H](NC(=O)N1C(=O)C[C@@H]1Cc1ccccc1)c1cccc2ccccc12 [Entry 105] | > 18 µM |  | 7.7 µM | > 18 µM |  |
| COc1c(C)cc(NC(=O)N2C(=O)C[C@@H]2Cc2ccccc2)cc1C [Entry 106] | > 250 µM |  | 2.4 µM | 190 µM |  |
| O=C1C[C@H](Cc2ccccc2)N1C(=O)Nc1ccncc1 [Entry 107] | > 250 µM |  | 1.9 µM | > 250 µM |  |
| CCC(NC(=O)N1C(=O)C[C@@H]1Cc1ccccc1)c1ccncc1 (stereo partly drawn) [Entry 108] |  |  | 28 µM |  |  |
| CCC(NC(=O)N1C(=O)C[C@@H]1Cc1ccccc1)c1ccncc1 (stereo partly drawn) [Entry 109] | > 250 µM |  | 1.6 µM | 130 µM |  |
| CCC(CC)NC(=O)N1C(=O)C[C@@H]1Cc1ccccc1 [Entry 110] |  |  | 38 µM |  |  |
| O=C1C[C@H](Cc2ccccc2)N1C(=O)NCc1ccc2c(c1)OCO2 [Entry 111] | > 150 µM |  | 3.7 µM | > 150 µM |  |
| CN(Cc1ccccc1)C(=O)N1C(=O)C[C@@H]1Cc1ccccc1 [Entry 112] | > 150 µM |  |  | 150 µM |  |
| CN(C)C(=O)N1C(=O)C[C@@H]1Cc1ccccc1 [Entry 113] |  |  | 50 µM |  |  |
| CN(CCc1ccccc1)C(=O)N1C(=O)C[C@@H]1Cc1ccccc1 [Entry 114] |  |  | 38 µM |  |  |
| CN(CC(=O)OCc1ccccc1)C(=O)N1C(=O)C[C@@H]1Cc1ccccc1 [Entry 115] |  |  | 11.7 µM |  |  |
| O=C1C[C@H](Cc2ccccc2)N1C(=O)NCc1ccccc1 [Entry 116, 4(S)-Benzyl-2-oxoazetidine-1-carboxylic acid benzyl-amide] | > 250 µM |  | 8.9 µM | 53 µM |  |
| CC[C@@H](NC(=O)N1C(=O)C[C@@H]1Cc1ccccc1)c1ccccc1 [Entry 118] | > 250 µM |  | 2.6 µM | 180 µM |  |
| C[C@H](c1ccccc1)N(C)C(=O)N1C(=O)C[C@@H]1Cc1ccccc1 [Entry 119] |  |  | 24 µM |  |  |
| CC(c1ccccc1)N(C)C(=O)N1C(=O)CC1Cc1ccccc1 (stereo not drawn) [Entry 120] |  |  | 17.7 µM |  |  |

| SMILES | CC50 [1] | EC50 [2] | IC50 (HCMV NO protease) | EC50 [2, 3] | kcat/KM (HCMV NO protease; fluorogenic substrate of HCMV NO protease) |
| --- | --- | --- | --- | --- | --- |
| CCCC(NC(=O)N1C(=O)CC1Cc1ccccc1)c1ccccc1 (stereo not drawn) [Entry 121] | > 250 µM |  | 3.4 µM | 160 µM |  |
| CN(Cc1ccc([N+](=O)[O-])cc1)C(=O)N1C(=O)C[C@@H]1Cc1ccccc1 [Entry 122] | > 250 µM |  | 1.5 µM | 105 µM |  |
| CCC(c1ccccc1)N(C)C(=O)N1C(=O)CC1Cc1ccccc1 (stereo not drawn) [Entry 123] |  |  | 30 µM |  |  |
| CN(Cc1ccccc1[N+](=O)[O-])C(=O)N1C(=O)C[C@@H]1Cc1ccccc1 [Entry 124] | > 250 µM |  | 6.9 µM | 150 µM |  |
| CN(Cc1ccc(N)cc1)C(=O)N1C(=O)C[C@@H]1Cc1ccccc1 [Entry 125] |  |  | 13.4 µM |  |  |
| CN(Cc1ccc(Cl)cc1)C(=O)N1C(=O)C[C@@H]1Cc1ccccc1 [Entry 126] | > 250 µM |  | 6.9 µM | 150 µM |  |
| Cc1ccc(CN(C)C(=O)N2C(=O)C[C@@H]2Cc2ccccc2)cc1 [Entry 129] | > 200 µM |  | 8.9 µM | 140 µM |  |
| COc1ccc(CN(C)C(=O)N2C(=O)C[C@@H]2Cc2ccccc2)cc1 [Entry 130] | > 250 µM |  |  | 110 µM |  |
| CN(Cc1ccc(C(F)(F)F)cc1)C(=O)N1C(=O)C[C@@H]1Cc1ccccc1 [Entry 135, 4(S)-Benzyl-2-oxoazetidine-1-carboxylic acid N-methyl-N-{{4-(trifluoromethyl)phenyl}methyl}amide] | > 250 µM |  |  | 190 µM |  |
| CN(Cc1ccc([S+]([O-])C(F)(F)F)cc1)C(=O)N1C(=O)C[C@@H]1Cc1ccccc1 (stereo partly drawn) [Entry 138] | > 250 µM |  |  | > 250 µM |  |
| O=C1C[C@H](Cc2ccccc2)N1C(=O)NC1CCc2ccccc21 (stereo partly drawn) [Entry 140] |  |  | 14 µM |  |  |
| CC(NC(=O)N1C(=O)CC1Cc1ccccc1)c1ccccc1 (stereo not drawn) [Entry 141] |  |  | 42 µM |  |  |
| O=C1C[C@H](Cc2ccccc2)N1C(=O)NCc1ccccn1 [Entry 143] |  |  | 33 µM |  |  |
| C[C@@H]1C(=O)N(C(=O)NCc2ccncc2)[C@H]1Cc1ccccc1 [Entry 201] | > 250 µM |  |  | 190 µM |  |
| CO[C@@H]1C(=O)N(C(=O)NCc2ccncc2)[C@H]1Cc1ccccc1 [Entry 210, 4(S)-Benzyl-3(S)-methoxy-2-oxoazetidine-1-carboxylic acid (4-pyridinylmethyl)amide] | > 250 µM |  |  | 210 µM |  |
| CC[C@@H](NC(=O)N1C(=O)C[C@H]1C(C)(C)C)c1ccccc1 [Entry 215, 4(S)-tert-Butyl-2-oxoazetidine-1-carboxylic acid (1(R)-phenylpropyl)amide] |  |  | 41 µM |  |  |
| CN(Cc1ccc(C(F)(F)F)cc1)C(=O)N1C(=O)C[C@@H]1Cc1ncoc1-c1ccccc1 [Entry 220] |  |  | 14 µM |  |  |
| O=C1C[C@H](Cc2ccccc2)N1C(=O)N1CCOCC1 [Entry 301] |  |  | 142 µM |  |  |
| O=C1C[C@H](Cc2ccccc2)N1C(=O)N1CCc2ccccc2C1 [Entry 302] |  |  | 36 µM |  |  |
| O=C1C[C@H](Cc2ccccc2)N1C(=O)N1CCCC1 [Entry 303] |  |  | 63 µM |  |  |
| O=C1C[C@H](Cc2ccccc2)N1C(=O)N1CCCc2ccccc21 [Entry 304] |  |  | 154 µM |  |  |
| CC(C)C[C@H](NC(=O)[C@H](CCCNC(=N)N)NC(=O)[C@H](CO)NC(=O)[C@H](CO)NC(=O)[C@H](C)NC(=O)[C@H](CC(N)=O)NC(=O)[C@@H](NC(=O)[C@@H](NC(=O)c1ccccc1N)C(C)C)C(C)C)C(=O)N[C@@H](Cc1ccc(O)c([N+](=O)[O-])c1)C(=O)N[C@@H](CCCNC(=N)N)C(=O)O [reference compound] (H-[2Abz]VVNASSRL[Tyr(3-NO2)]R-OH) |  |  |  |  | 260 M⁻¹ s⁻¹ |
